“Also recorded” adds a separate entry of the source.
Assays:
[1] = system: genetically narcoleptic Doberman pinschers; test: modified food elicited cataplexy test (FECT); type: in vivo; conditions: for cataplexy (number of cataplectic attacks): FECT 4 min after administration; for FECT time (time to consume the food) / cataplexy (number of cataplectic attacks / falls): vs saline control
Method: (§1) Six genetically narcoleptic Doberman pinschers (5 males and 1 female) served as subjects. We analyzed the effect of systemically administered Hcrt-1 on cataplexy with a modified food elicited cataplexy test (FECT). The effect of Hcrt-1 administration on sleep organization was determined using polygraph recording. The effect of Hcrt-1 administration on activity levels and the duration of sleep-waking states over the 24-hr period was determined with actigraphy.
(§2) One to 4 μg/kg of Hcrt-1 (orexin-A, #003-30, Phoenix Pharmaceuticals, Mountain View, Calif.) dissolved in normal saline (100 μg in 2 ml) was administered through the cephalic vein using a glass syringe. The glass syringe was pre-soaked in 1% BSA, rinsed in Milli-Q water, then dried at 60° C. prior to use. This treatment combined with the large volume of the dilutent used minimizes problems caused by the “stickiness” of the peptide. On control days, saline was administered in the same manner. Hcrt-1 or control injections were administered daily at the same time.
FECT was done by introducing a bowl of soft food (Pedigree, by Kalkan) in the home cage and counting the number of cataplectic attacks (including hind limb collapse and total cataplexies in which all four limbs collapse and the whole body contacts the floor) and total time required to eat the food (FECT time). All the FECTs began 4 min after the administration of Hcrt-1 or saline.
(§3) Data were analyzed with ANOVA, followed by post-hoc comparisons using Newman-Keuls tests. Bonferroni t-tests were done to compare the effect of Hcrt-1 on sleep stages measured with polygraphic recording. One sample t-tests were performed to test the significance of number of cataplectic attacks and FECT time (expressed as a percentage of baseline) after Hcrt-1 within each dose.

[2] = system: genetically narcoleptic Doberman pinschers; test: polygraphic recording of sleep-wake parameters; type: in vivo
Method: as §1
One to 4 μg/kg of Hcrt-1 (orexin-A, #003-30, Phoenix Pharmaceuticals, Mountain View, Calif.) dissolved in normal saline (100 μg in 2 ml) was administered through the cephalic vein using a glass syringe. The glass syringe was pre-soaked in 1% BSA, rinsed in Milli-Q water, then dried at 60° C. prior to use. This treatment combined with the large volume of the dilutent used minimizes problems caused by the “stickiness” of the peptide. […]
Polygraphic recording. […] Polygraphic variables were recorded for 4 hrs after Hcrt-1 (3 μg/kg) or saline injection.
as §3

[3] = system: genetically narcoleptic Doberman pinschers; test: actigraphy of sleep-wake periods and activity level; type: in vivo
Method: as §1, §2
The effects of Hcrt-1 on sleep-wake periods were monitored continuously for 24 hrs/day with collar mounted actigraphs (Actiwatch, Mini Mitter Inc, Sundriver, Oreg.) while the animals remained in their home dog runs. Actigraphs were secured to a neck collar that was placed on the dogs throughout the period of study. Data were downloaded to a PC through an inductively coupled Actiwatch reader and further analyzed by a program of our design. The program could integrate total numbers of movements above a preset amplitude for a measurement of total level of activity in 5 minutes epochs. For analysis of sleep state, actigraphs were first calibrated by placing them on an animal instrumented for conventional polygraphic recording. A threshold was determined for discriminating polygraphically defined waking and sleep in 30-sec epochs. The durations of sleep periods were then counted and tabulated by computer. The sleep-wake bouts measured by actigraph correlated well with hypnograms obtained from polygraphic recording (r=0.84, p<0.001).
as §3
Actigraph measurements were used to calculate the duration of sleep and waking states for the nights following injection. First, comparisons of actigraphic measurements and polygraphically recorded sleep states were made and used to determine thresholds for distinguishing sleep and wake periods. Then wake and sleep state periods were quantified starting 2 hrs following administration. […] These effects lasted for more than 24 hrs (p<0.01, F=5.56, df=3, 15 and p<0.002, F=8.58, df=3, 15 for sleep and wake periods respectively). The frequency of sleep and wake bouts was reduced (p<0.05, F=3.35, df=3, 15 and p<0.05, F=3.40, df=3, 15, respectively) (FIG. 2b, 2c).

Hcrt-1 antiserum = test: solid-phase radioimmunoassay (RIA) for Hcrt-1; type: binding; conditions: competition with 125I-labeled Hcrt-1
From the text: Furthermore, sensitivity is increased over that obtained with more traditional methods using identical antibodies and assay volumes. In this system, the antibody is immobilized onto the surface of 96-well Immulon II-coated plates (Dynatech) through attachment of the constant region of the immunoglobulin (Ig) molecule to the purified bacterial wall protein-protein A (the use of this protein greatly increases the capacity of the wells for antibody thereby avoiding the necessity for antibody purification). […] After a pre-determined incubation period separation of bound from free tracer peptide is accomplished by simply pouring out the contents of the wells and washing with buffer. For example, the individual wells of a 96-well plate containing Ab-bound tracer peptide are then physically separated and counted in a gamma counter. […]
The Hcrt-1, iodinated Hcrt-1, and Hcrt-1 antiserum were obtained from Phoenix Pharmaceuticals, Inc. (530 Harbor Blvd, Belmont, Calif.). […] This enables direct reading of radioactivity in a Top Count plate reader (Packard) without the requirement to separate out individual wells.
The 96-well plates are first coated with protein A(Sigma, binding capacity 9-11 mg of human IgG per mg) by adding 0.1 μg in 100 μl of 0.1M sodium bicarbonate, pH9, to each well. […] The antibody dilution used is that which is pre-determined to produce 20-30% maximum binding in the assay. […]

[4] = Hcrt-1 levels by solid-phase RIA, narcoleptic dog; type: in vivo
Method: In order to assess the effect of the intravenous Hcrt-1 injection on central levels of the compound, cerebrospinal fluid (CSF) and blood serum was collected and analyzed after infusion of Hcrt-1. In these studies, Hcrt-1 was injected intravenously as in the behavioral studies into two Doberman pinschers, one narcoleptic, and one control that had been anesthetized with Fluothane anesthesia. Saline was injected in a third dog, a non-narcoleptic control. Prior to injection and at 15, 30 min and one hour intervals after injection, CSF was collected from the cisterna magna with a spinal needle and then quickly frozen at −20. Hypocretin was extracted from 0.5-1 ml samples with reverse a phase SEP-PAK C18 column. An ^125I Hcrt-1 radioimmunoassay was used to measure levels in reconstituted aliquots (described below).
(§4) Prior to RIA, Hcrt-1 is extracted from the CSF or plasma sample. This is achieved by acidification of the sample with 1% TFA followed by loading onto a C18 Sep-Column, washing the column with 1% TFA, and eluting the peptide with 1% TFA/40% acetonitrile. The eluant is then dried down and re-suspended in RIA buffer ready for assay.
The 96-well plates are first coated with protein A(Sigma, binding capacity 9-11 mg of human IgG per mg) by adding 0.1 μg in 100 μl of 0.1M sodium bicarbonate, pH9, to each well. The plates are normally prepared in advance and can be stored for several weeks at 4° C. when tightly wrapped to prevent drying out. However, it is possible to use them after approximately 2 h incubation at room temperature. The protein A solution is then discarded and the plates washed 3 times in a wash buffer consisting of 0.15M K2HPO4, 0.2 mM ascorbic acid, 0.2% Tween 20, pH7.5 and blotted on a paper towel. Next, 200 μl of assay buffer (same as wash buffer plus 0.1% gelatin) is pipetted into each well and left at room temperature for 30 min. This step is included in an attempt to remove protein A bound with only low affinity to the plate which might otherwise dissociate at later stages in the assay thereby removing bound antibody and tracer. After dumping this solution and blotting, 50 μl of the appropriate concentration of antibody diluted with assay buffer is added to all but 4 wells. To these 4 wells are added assay buffer alone to provide an index of non-specific binding. The antibody dilution used is that which is pre-determined to produce 20-30% maximum binding in the assay. The wells are then left for 2 h at room temperature. […]
A 2 h pre-incubation period at room temperature then follows. […] Subsequently the contents of the wells are discarded and the wells washed 3 times with wash buffer and blotted prior to addition of Microscint 20 and counting in the Top Count plate reader. […]

[5] = Hcrt-1 levels by solid-phase RIA, normal human; type: in vivo
Method: as §4
The 96-well plates are first coated with protein A(Sigma, binding capacity 9-11 mg of human IgG per mg) by adding 0.1 μg in 100 μl of 0.1M sodium bicarbonate, pH9, to each well. The plates are normally prepared in advance and can be stored for several weeks at 4° C. when tightly wrapped to prevent drying out. However, it is possible to use them after approximately 2 h incubation at room temperature. The protein A solution is then discarded and the plates washed 3 times in a wash buffer consisting of 0.15M K2HPO4, 0.2 mM ascorbic acid, 0.2% Tween 20, pH7.5 and blotted on a paper towel. Next, 200 μl of assay buffer (same as wash buffer plus 0.1% gelatin) is pipetted into each well and left at room temperature for 30 min. This step is included in an attempt to remove protein A bound with only low affinity to the plate which might otherwise dissociate at later stages in the assay thereby removing bound antibody and tracer. After dumping this solution and blotting, 50 μl of the appropriate concentration of antibody diluted with assay buffer is added to all but 4 wells. To these 4 wells are added assay buffer alone to provide an index of non-specific binding. The antibody dilution used is that which is pre-determined to produce 20-30% maximum binding in the assay. The wells are then left for 2 h at room temperature.
Standard solutions of Hcrt-1 are prepared in quadruplet ranging from 0.1 to 50 fmol in 50 μl. These standards (plus four blanks) are made up in RIA buffer. All dilutions are carried out in polypropylene tubes to minimize loss due to ‘sticking’. The contents of each tube are then transferred to the assay wells following dumping of the antibody solution, washing 3 times with wash buffer and blotting.
A 2 h pre-incubation period at room temperature then follows. At the end of this time 50 μl of assay buffer containing approximately 5,000 CPM of ^125I-labeled tracer peptide is added to each well and the plate left to incubate overnight at 4° C. (this final incubation step can be reduced to approx. 2 h with only slight loss of sensitivity). Subsequently the contents of the wells are discarded and the wells washed 3 times with wash buffer and blotted prior to addition of Microscint 20 and counting in the Top Count plate reader. Results from the Solid-Phase Radioimmunoassay (RIA) for Hypocretin (Hcrt-1) are shown below in Table I: […]

[6] = system: genetically narcoleptic Doberman pinschers; test: health and behavior observed throughout the study; type: in vivo
Method: as §1, §2

REM sleep = conditions: intracerebroventricular administration; cited from earlier work
[7] = in vivo; cited from earlier work
[8] = 3 μg/kg, representative actigraph record
[9] = single dose, from 2 hrs after administration

Hcrt-1: Hcrt-1 (orexin-A, #003-30, Phoenix Pharmaceuticals) peptide dissolved in normal saline (QPLPDCCRQKTCSCRLYELLHGAGNHAAGILTL; Orexin-A; UniProt O43612 34-66, looked up)
cataplexy (number of cataplectic attacks) ([1]; 1 μg/kg intravenous): did not produce any change in cataplexy; also recorded: did not affect cataplexy
cataplexy (number of cataplectic attacks) ([1]; 2 μg/kg intravenous): did not produce any change in cataplexy; also recorded: did not affect cataplexy
FECT time (time to consume the food) ([1]; 3 μg/kg intravenous): reduction in the FECT time; also recorded: significant decrease
cataplexy (number of cataplectic attacks / falls) ([1]; 3 μg/kg intravenous): reduction in cataplexy; also recorded: significant decrease in the number of falls
FECT time (time to consume the food) ([1]; 4 μg/kg intravenous): significantly increased the FECT time
cataplexy (number of cataplectic attacks / falls) ([1]; 4 μg/kg intravenous): significantly increased the severity of cataplexy; also recorded: significantly increased the number of falls
effect on cataplexy across doses ([1]; 1 to 4 μg/kg intravenous, ANOVA): significant effect on cataplexy in a dose dependent manner; also recorded: dose dependent change in cataplexy
period without any cataplexy after repeated doses ([1]; after 3-5 doses, two of the 3 dogs treated): ≥ 3 days
time taken to finish the food during the period without cataplexy ([1]; after repeated doses): significantly reduced
period over which severity of cataplexy returned to pretreatment levels ([1]; after repeated doses, both dogs): 3 to 4 days
cataplexy after five doses (FIG. 1D) ([1]; five doses, more severely affected dog): complete suppression of cataplexy during the FECT observed on 3 tests given every other day over a 6 day period
cataplexy after three doses (FIG. 1C) ([1]; three doses, one dog): complete suppression of cataplexy for three consecutive days
REM sleep ([2]; 3 μg/kg, 4 hr post-injection period, vs saline): significant reduction; also recorded: significant decrease in REM sleep
nonREM sleep ([2]; after Hcrt-1 administration): without change
motor activity ([3]; 3 μg/kg, after injection, vs saline): increased motor activity; also recorded: increase of motor activity was statistically significant at 0-30 and 30-60 minutes
onset of increase in motor activity after injection [3, 8]: ≤ 5 min
persistence of increase in motor activity [3, 8]: 60 min
sleep consolidation (sleep bout length) ([3]; periods of cataplexy suppression following repeated doses, vs baseline): consolidated (increased sleep bout length)
frequency of sleep bouts ([3]; single dose): reduced; also recorded: decrease in frequency
frequency of wake bouts ([3]; single dose): reduced
how long the effects on sleep and wake period duration lasted ([3]; single dose): more than 24 hrs
mean duration of sleep periods (sleep bout duration) [3, 9]: increased; also recorded: significant increase in sleep bout duration
mean duration of wake periods [3, 9]: increased
total duration of sleep ([3]; vs pre-drug levels): increased after Hcrt-1 as compared to pre-drug levels, but not significantly
IC50 value for this Hcrt-1 assay (Hcrt-1 antiserum): 2 fmol
Mean level ([4]; Blood serum): 11 fmol/mL
Range in levels ([4]; Blood serum): 5 to 16 fmol/mL
Mean level ([4]; Cerebrospinal fluid): 53 fmol/mL
Range in levels ([4]; Cerebrospinal fluid): 26 to 140 fmol/mL
Mean level ([5]; Blood serum): 10 fmol/mL
Range in levels ([5]; Blood serum): 8 to 14 fmol/mL
Mean level ([5]; Cerebrospinal fluid): 62 fmol/mL
Range in levels ([5]; Cerebrospinal fluid): 21 to 203 fmol/mL
feeding / rate of food consumption ([6]; period of cataplexy suppression after repeated doses): normal feeding during FECTs; also recorded: consumed their food at a normal rate
abnormal behaviors ([6]; throughout the study): no grooming, “wet dog shakes” or other abnormal behaviors
general health of the dogs ([6]; throughout the study): excellent health
REM sleep (REM sleep): selective suppression of REM sleep

iodinated Hcrt-1: iodinated Hcrt-1 reported in the literature to pass the BBB (QPLPDCCRQKTCSCRLYELLHGAGNHAAGILTL; Orexin-A iodinated; UniProt O43612 34-66, looked up)
passage of the BBB [7]: passes the BBB

— patent US7335640B2, “Administration of hypocretin-1 for treatment of narcolepsy” (The Regents of the University of California, priority 1999, dated 2008)
